# Measurements reported in ChEMBL document CHEMBL1133708, “A new class of conformationally rigid analogues of 4-amino-5-halopentanoic acids, potent inactivators of gamma-aminobutyric acid aminotransferase” (J Med Chem, 2000).
# pKi: −log10 of the molar value.
# Columns and labels:
# [1] = target: 4-aminobutyrate aminotransferase, mitochondrial (Sus scrofa) (UniProt P80147); assay: Compound was evaluated for the kinetic constant for the inactivation of Gamma-amino-N-butyrate transaminase
# [2] = target: T1, 4-aminobutyrate aminotransferase, mitochondrial (Sus scrofa, UniProt P80147); assay: Compound was evaluated for the kinetic constant for the inhibition of Gamma-amino-N-butyrate transaminase
# T1 sequence (P80147 whole entry): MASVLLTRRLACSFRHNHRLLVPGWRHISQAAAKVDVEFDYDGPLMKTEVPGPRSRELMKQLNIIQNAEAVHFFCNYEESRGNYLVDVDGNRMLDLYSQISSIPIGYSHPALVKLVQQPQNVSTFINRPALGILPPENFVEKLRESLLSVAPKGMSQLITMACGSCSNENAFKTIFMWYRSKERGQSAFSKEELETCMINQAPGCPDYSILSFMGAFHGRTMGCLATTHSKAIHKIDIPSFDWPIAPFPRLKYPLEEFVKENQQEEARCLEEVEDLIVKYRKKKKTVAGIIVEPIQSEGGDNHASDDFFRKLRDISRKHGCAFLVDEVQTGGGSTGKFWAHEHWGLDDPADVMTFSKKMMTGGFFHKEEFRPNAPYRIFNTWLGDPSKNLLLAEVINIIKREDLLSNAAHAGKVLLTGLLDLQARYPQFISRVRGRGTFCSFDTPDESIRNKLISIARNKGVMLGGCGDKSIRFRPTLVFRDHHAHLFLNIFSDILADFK
# [3] = target: T1, 4-aminobutyrate aminotransferase, mitochondrial; assay: Compound was evaluated for the competitive inhibition of Gamma-amino-N-butyrate transaminase
# [4] = Selectivity ratio of Kinact/KI
# [5] = target: 4-aminobutyrate aminotransferase, mitochondrial (Sus scrofa) (UniProt P80147); assay: Compound was evaluated for the kinetic constant for the inhibition of Gamma-amino-N-butyrate transaminase; NA means no inactivation
# Chain of 4-aminobutyrate aminotransferase, mitochondrial (Sus scrofa) (P80147 whole entry): as above
Compound,kinact [1],pKi [2],pKi [3],K inact/Ki [4],NA [5]
N[C@H]1C[C@@H](C(=O)O)C[C@@H]1F,0.03 min⁻¹,3.37,4.92,1.17 M⁻¹ s⁻¹,–
N[C@H]1[C@H](O)[C@@H](C(=O)O)C[C@@H]1Br,–,–,2.23,–,No inactivation
N[C@H]1C[C@@H](C(=O)O)C[C@@H]1Br,0.02 min⁻¹,1.80,2.44,0.0217 M⁻¹ s⁻¹,–
N[C@H]1[C@H](Br)[C@@H](C(=O)O)C[C@@H]1F,–,–,2.33,–,No inactivation
N[C@H]1[C@@H](F)[C@@H](C(=O)O)C[C@@H]1Br,0.023 min⁻¹,2.50,2.80,0.122 M⁻¹ s⁻¹,–
NC(CF)CCC(=O)O (configuration not stated),0.5 min⁻¹,3.40,–,–,–

# The remaining lines, values ahead:
kinact [1],pKi [2],pKi [3],K inact/Ki [4],NA [5],Compound
–,–,1.92,–,No inactivation,N[C@@H]1CC[C@H](C(=O)O)[C@H]1Br
–,–,1.89,–,No inactivation,N[C@H]1[C@H](Br)[C@@H](C(=O)O)C[C@@H]1O
0.18 min⁻¹,1.31,2.38,0.0617 M⁻¹ s⁻¹,–,N[C@H]1[C@H](Br)[C@@H](C(=O)O)C[C@@H]1Br
–,–,–,–,No inactivation,N[C@H]1C[C@@H](C(=O)O)CC1(F)F
